Structures can show the parent of a compound that is named as a salt.
Legend:
[1] = target: T1, β2-receptor subtype (rat lung membranes, 25% of β1, 75% of β2) (Rattus norvegicus, UniProt P10608); assay: Inhibition of specific 3H-dihydroalprenolol binding in rat lung membranes; conditions: 1 nM 3H-dihydroalprenolol, confidence limits in brackets, read-out: Lung Ki (competition constant)
T1 construct: rat lung membranes; from tissue; host or cells: rat lung membranes
Protocol: Two experiments were carried out with three batches.

[2] = test system: aconitine-induced arrhythmia; assay: Antiarrhythmic action in aconitine-induced arrhythmia of the rat; format: in vivo; conditions: iv, 5 min, read-out: Antiarrhythmic effect on aconitine-induced arrhythmias ED 50%
Protocol: 2. Determination of the antiarrhythmic action in aconitine-induced arrhythmia of the rat
The experimental animals used were male Sprague-Dawley rats weighing from 180 to 300 g. Anaesthesia was effected intraperitoneally with 100 mg/kg of thiobutabarbital. To induce arrhythmias, aconitine was infused at a rate of 5 μg per kg per minute. The test substances were administered intravenously 2 minutes before the beginning of the aconitine infusion. The parameter measured was the duration of the aconitine infusion when the first arrhythmias (loss of P, ventricular extrasystoles and tachycardias) appeared in the ECG of the animals. In untreated animals, the aconitine-induced arrhythmia occurred after 3.3±0.11 minutes (n=120). The ED 50% was determined from the linear relationship between log dose (mg/kg) of the test substances and the relative prolongation of aconitine infusion duration (Δ%).

T1 sequence (P10608 whole entry): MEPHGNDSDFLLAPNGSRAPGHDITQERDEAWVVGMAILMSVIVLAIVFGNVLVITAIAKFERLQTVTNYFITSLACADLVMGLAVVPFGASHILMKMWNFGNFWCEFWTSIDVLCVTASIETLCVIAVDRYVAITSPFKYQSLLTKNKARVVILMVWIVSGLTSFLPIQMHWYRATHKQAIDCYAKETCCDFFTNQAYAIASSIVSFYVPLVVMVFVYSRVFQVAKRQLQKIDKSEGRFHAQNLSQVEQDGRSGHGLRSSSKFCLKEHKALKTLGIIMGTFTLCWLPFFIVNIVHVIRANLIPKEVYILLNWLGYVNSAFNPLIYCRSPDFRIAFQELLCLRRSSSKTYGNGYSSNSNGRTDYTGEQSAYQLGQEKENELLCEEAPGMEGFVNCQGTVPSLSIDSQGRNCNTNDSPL

Compound | Ki [1] [nM] | ED50 [2] [mg/kg]
CCCNCC(O)COc1ccccc1C(=O)CCc1ccccc1 (racemic) [(R,S)-propafenone, 2'-(2-hydroxy-3-propylaminopropoxy)-3-phenylpropiophenone, reference compound] | 32 | 0.724
CCCNC[C@@H](O)COc1ccccc1C(=O)CCc1ccccc1 [(R)-propafenone, (R)-propafenone . HCl] | 257 | 0.801
CCCNC[C@H](O)COc1ccccc1C(=O)CCc1ccccc1 [(S)-propafenone, (S)-propafenone . HCl] | 14 | 0.676

Source: US4945114A, “Therapeutic agents containing enantiomers of propafenone” (priority 1987, dated 1990)
